# Test results: ChEMBL document CHEMBL1201862, “PubChem BioAssay data set” (2004)
# Several values for one entry are separate records, joined by “and”; a condition that tells them apart may be missing. Equal values may be shown once.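 Growth conditions: 96-well plates. Treatment: test compound, 48 hours, 5 concentrations. Analysis: linear interpolation between bracketing concentrations; unreached endpoints set to highest concentration. GI50: concentration for 50% inhibition of growth.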 Activity calls are given as the source filed them. No stated cut-off is given here; in the data, active = GI50 up to about 1.1 µM and inactive = higher.
# How the values were obtained:
# Test in all cases: NCI tumour cell line growth inhibition, 48 h
# M14 = tested on: M14
# HOP-92 = tested on: HOP-92
# RPMI-8226 = tested on: RPMI-8226
# NCI-H460 = tested on: NCI-H460
# K562 = tested on: K562
# HOP-62 = tested on: HOP-62
# SR = tested on: SR
# UACC-257 = tested on: UACC-257
# A549 = tested on: A549
# LOX IMVI = tested on: LOX IMVI
# SF-539 = tested on: SF-539
# SW-620 = tested on: SW-620
# UACC-62 = tested on: UACC-62
# SF-295 = tested on: SF-295
# NCI-H226 = tested on: NCI-H226
# MDA-MB-435 = tested on: MDA-MB-435
# HL-60 = tested on: HL-60
# A498 = tested on: A498
# NCI-H522 = tested on: NCI-H522
# ACHN = tested on: ACHN
# SN12C = tested on: SN12C
# DU-145 = tested on: DU-145
# MDA-MB-231 = tested on: MDA-MB-231
# SNB-75 = tested on: SNB-75
# KM12 = tested on: KM12
# SK-MEL-5 = tested on: SK-MEL-5
# SNB-19 = tested on: SNB-19
# SK-MEL-28 = tested on: SK-MEL-28
# U-251 = tested on: U-251
# HT-29 = tested on: HT-29
# 786-0 = tested on: 786-0
# CCRF-CEM = tested on: CCRF-CEM
# MCF7 = tested on: MCF7
# OVCAR-8 = tested on: OVCAR-8
# RXF 393 = tested on: RXF 393
# EKVX = tested on: EKVX
# IGROV-1 = tested on: IGROV-1
# TK-10 = tested on: TK-10
# MOLT-4 = tested on: MOLT-4
# OVCAR-5 = tested on: OVCAR-5
# NCI-H23 = tested on: NCI-H23
# HCT-116 = tested on: HCT-116
# COLO 205 = tested on: COLO 205
# MDA-N = tested on: MDA-N
# SF-268 = tested on: SF-268
# OVCAR-4 = tested on: OVCAR-4
# SK-MEL-2 = tested on: SK-MEL-2
# SK-OV-3 = tested on: SK-OV-3
# CAKI-1 = tested on: CAKI-1
# Malme-3M = tested on: Malme-3M
# NCI/ADR-RES = tested on: NCI/ADR-RES
# OVCAR-3 = tested on: OVCAR-3
# HCT-15 = tested on: HCT-15
# Hs-578T = tested on: Hs-578T
# PC-3 = tested on: PC-3
# T47D = tested on: T47D
# HCC 2998 = tested on: HCC 2998
# UO-31 = tested on: UO-31
structure (smiles),measurement,setting,value
COC(=S)OC1CC(n2cnc3c(=O)[nH]cnc32)OC1CO[Si](C)(C)C(C)(C)C (stereo not given),GI50,M14,> 100 µM (inactive)
same,GI50,HOP-92,> 100 µM (inactive)
same,GI50,RPMI-8226,> 100 µM (inactive)
same,GI50,NCI-H460,> 100 µM (inactive)
same,GI50,K562,> 100 µM (inactive)
same,GI50,HOP-62,> 100 µM (inactive)
same,GI50,SR,> 100 µM (inactive)
same,GI50,UACC-257,> 100 µM (inactive)
same,GI50,A549,> 100 µM (inactive)
same,GI50,LOX IMVI,> 100 µM (inactive)
same,GI50,SF-539,> 100 µM (inactive)
same,GI50,SW-620,> 100 µM (inactive)
same,GI50,UACC-62,> 100 µM (inactive)
same,GI50,SF-295,> 100 µM (inactive)
same,GI50,NCI-H226,> 100 µM (inactive)
same,GI50,MDA-MB-435,> 100 µM (inactive)
same,GI50,HL-60,> 100 µM (inactive)
same,GI50,A498,> 100 µM (inactive)
same,GI50,NCI-H522,> 100 µM (inactive)
same,GI50,ACHN,> 100 µM (inactive)
same,GI50,SN12C,> 100 µM (inactive)
same,GI50,DU-145,> 100 µM (inactive)
same,GI50,MDA-MB-231,> 100 µM (inactive)
same,GI50,SNB-75,> 100 µM (inactive)
same,GI50,KM12,> 100 µM (inactive)
same,GI50,SK-MEL-5,> 100 µM (inactive)
same,GI50,SNB-19,> 100 µM (inactive)
same,GI50,SK-MEL-28,> 100 µM (inactive)
same,GI50,U-251,> 100 µM (inactive)
same,GI50,HT-29,> 100 µM (inactive)
same,GI50,786-0,> 100 µM (inactive)
same,GI50,CCRF-CEM,> 100 µM (inactive)
same,GI50,MCF7,> 100 µM (inactive)
same,GI50,OVCAR-8,> 100 µM (inactive)
same,GI50,RXF 393,> 100 µM (inactive)
same,GI50,EKVX,> 100 µM (inactive)
same,GI50,IGROV-1,> 100 µM (inactive)
same,GI50,TK-10,> 100 µM (inactive)
same,GI50,MOLT-4,> 100 µM (inactive)
same,GI50,OVCAR-5,> 100 µM (inactive)
same,GI50,NCI-H23,> 100 µM (inactive)
same,GI50,HCT-116,> 100 µM (inactive)
same,GI50,COLO 205,> 100 µM (inactive)
same,GI50,MDA-N,> 100 µM (inactive)
same,GI50,SF-268,> 100 µM (inactive)
same,GI50,OVCAR-4,> 100 µM (inactive)
same,GI50,SK-MEL-2,> 100 µM (inactive)
same,GI50,SK-OV-3,> 100 µM (inactive)
same,GI50,CAKI-1,> 100 µM (inactive)
same,GI50,Malme-3M,> 100 µM (inactive)
same,GI50,NCI/ADR-RES,> 100 µM (inactive)
same,GI50,OVCAR-3,> 100 µM (inactive)
same,GI50,HCT-15,> 100 µM
same,GI50,Hs-578T,> 100 µM (inactive)
same,GI50,PC-3,> 100 µM (inactive)
CC(C)(/N=N/C(C)(C)C1=NCCN1)C1=NCCN1,GI50,HOP-92,> 100 µM (inactive)
same,GI50,A549,> 100 µM (inactive)
same,GI50,TK-10,> 100 µM (inactive)
same,GI50,NCI-H23,> 100 µM (inactive)
same,GI50,SK-OV-3,> 100 µM (inactive)
same,GI50,CAKI-1,> 100 µM (inactive)
CC(C)(C)NC(NC(C)(C)C)=C(/C=C(/Cl)[N+](=O)[O-])[N+](=O)[O-],GI50,M14,27.7 µM (inactive)
same,GI50,HOP-92,> 100 µM (inactive)
same,GI50,RPMI-8226,67.3 µM (inactive)
same,GI50,NCI-H460,52.2 µM (inactive)
same,GI50,K562,55.1 µM (inactive)
same,GI50,HOP-62,> 100 µM (inactive)
same,GI50,SR,32.6 µM (inactive)
same,GI50,UACC-257,94 µM (inactive)
same,GI50,T47D,68.5 µM (inactive)
same,GI50,A549,25.7 µM (inactive)
same,GI50,HCC 2998,62.1 µM (inactive)
same,GI50,LOX IMVI,> 100 µM (inactive)
same,GI50,SF-539,38.3 µM (inactive)
same,GI50,UACC-62,42.6 µM (inactive)
same,GI50,SF-295,> 100 µM (inactive)
same,GI50,NCI-H226,> 100 µM (inactive)
same,GI50,MDA-MB-435,19.5 µM (inactive)
same,GI50,HL-60,29.5 µM (inactive)
same,GI50,A498,> 100 µM (inactive)
same,GI50,NCI-H522,> 100 µM (inactive)
same,GI50,ACHN,65.3 µM (inactive)
same,GI50,SN12C,> 100 µM (inactive)
same,GI50,DU-145,> 100 µM (inactive)
same,GI50,MDA-MB-231,> 100 µM (inactive)
same,GI50,SNB-75,0.0395 µM (active)
same,GI50,KM12,> 100 µM (inactive)
same,GI50,SK-MEL-5,44.9 µM (inactive)
same,GI50,SNB-19,> 100 µM (inactive)
same,GI50,SK-MEL-28,> 100 µM (inactive)
same,GI50,U-251,> 100 µM (inactive)
same,GI50,HT-29,41.8 µM (inactive)
same,GI50,786-0,34.7 µM (inactive)
same,GI50,CCRF-CEM,67.8 µM (inactive)
same,GI50,MCF7,4.46 µM (inactive)
same,GI50,OVCAR-8,38.7 µM (inactive)
same,GI50,RXF 393,> 100 µM (inactive)
same,GI50,EKVX,> 100 µM (inactive)
same,GI50,IGROV-1,51.8 µM (inactive)
same,GI50,TK-10,> 100 µM (inactive)
same,GI50,MOLT-4,48.3 µM (inactive)
same,GI50,OVCAR-5,> 100 µM (inactive)
same,GI50,NCI-H23,42.7 µM (inactive)
same,GI50,HCT-116,34.3 µM (inactive)
same,GI50,COLO 205,26.4 µM (inactive)
same,GI50,MDA-N,26.2 µM (inactive)
same,GI50,SF-268,74.6 µM (inactive)
same,GI50,UO-31,> 100 µM (inactive)
same,GI50,OVCAR-4,17.1 µM (inactive)
same,GI50,SK-MEL-2,> 100 µM (inactive)
same,GI50,SK-OV-3,> 100 µM (inactive)
same,GI50,CAKI-1,> 100 µM (inactive)
same,GI50,Malme-3M,10.3 µM (inactive)
same,GI50,OVCAR-3,20 µM (inactive)
same,GI50,HCT-15,73.1 µM
same,GI50,Hs-578T,56.9 µM (inactive)
same,GI50,PC-3,45.6 µM (inactive)
CC(Nc1n[nH]c(=O)c2c1nnn2Cc1ccccc1)c1ccccc1 (stereo not given),GI50,M14,> 100 µM (inactive)
same,GI50,HOP-92,22.8 µM (inactive) and 23.9 µM (inactive)
same,GI50,RPMI-8226,72.8 µM (inactive)
same,GI50,UACC-257,50.6 µM (inactive) and 71 µM (inactive)
same,GI50,A549,23.8 µM (inactive) and 36 µM (inactive)
same,GI50,HCC 2998,> 100 µM (inactive)
same,GI50,SF-295,34.4 µM (inactive) and 17.8 µM (inactive)
same,GI50,MDA-MB-435,17.3 µM (inactive) and 22.3 µM (inactive)
same,GI50,ACHN,52.7 µM (inactive)
same,GI50,SN12C,> 100 µM (inactive)
same,GI50,DU-145,> 100 µM (inactive)
same,GI50,KM12,> 100 µM (inactive)
same,GI50,SK-MEL-5,18.8 µM (inactive) and 21.5 µM (inactive)
same,GI50,SK-MEL-28,> 100 µM (inactive) and 55.1 µM (inactive)
same,GI50,U-251,26.1 µM (inactive) and 37.1 µM (inactive)
same,GI50,HT-29,12.2 µM (inactive)
same,GI50,786-0,16.5 µM (inactive)
same,GI50,CCRF-CEM,> 100 µM (inactive)
same,GI50,MCF7,31.9 µM (inactive) and 29.1 µM (inactive)
same,GI50,EKVX,> 100 µM (inactive)
same,GI50,MOLT-4,56.9 µM (inactive) and 37.2 µM (inactive)
same,GI50,OVCAR-5,> 100 µM (inactive)
same,GI50,HCT-116,24.3 µM (inactive) and 27.5 µM (inactive)
same,GI50,COLO 205,77.4 µM (inactive) and 96.2 µM (inactive)
same,GI50,CAKI-1,18.6 µM (inactive) and 34.1 µM (inactive)
same,GI50,NCI/ADR-RES,> 100 µM (inactive) and 57.8 µM (inactive)
same,GI50,OVCAR-3,> 100 µM (inactive) and 53.5 µM (inactive)
same,GI50,HCT-15,> 100 µM
